{"source": "ChEMBL document CHEMBL4130502", "about": "“Discovery of thienopyrrolotriazine derivatives to protect mitochondrial function against Aβ-induced neurotoxicity” (Eur J Med Chem, 2017)", "key": {"[1]": {"molecular_target": "Translocator protein (Mus musculus) (UniProt P50637)", "sequence (P50637 whole entry, looked up)": "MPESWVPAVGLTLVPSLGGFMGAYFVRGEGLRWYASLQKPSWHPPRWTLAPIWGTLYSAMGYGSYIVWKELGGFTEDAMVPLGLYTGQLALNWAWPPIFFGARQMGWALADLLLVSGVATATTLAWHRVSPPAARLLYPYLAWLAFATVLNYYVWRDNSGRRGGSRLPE", "experiment": "Inhibition of TSPO in mouse HT22 cells assessed as reduction in amyloid beta (1 to 42) (unknown origin) induced mitochondrial permeability transition pore formation by measuring increase in green to red fluorescence ratio at 5 uM pretreated for 10 mins followed by amyloid beta (1 to 42) stimulation and measured at 1 hr interval for 3 hrs by JC-1 dye based fluorescence assay relative to control", "type": "cell-based", "parameters": "scale not given: the % may be the effect or the level left"}, "[2]": {"molecular_target": "Translocator protein (Mus musculus) (UniProt P50637)", "experiment": "Inhibition of TSPO in mouse HT22 cells assessed as recovery of ATP production at 5 uM preincubated for 10 mins followed by amyloid beta (1 to 42) stimulation and measured after 7 hrs by luciferase based assay relative to control", "type": "cell-based", "parameters": "scale not given: the % may be the effect or the level left"}, "[3]": {"experiment": "Cytotoxicity against mouse HT22 cells as cell viability at 5 uM after 24 hrs by MTT assay relative to control", "type": "cell-based, HT-22", "conditions": "read-out: Activity"}}}
{"smiles": "CCc1nn(CC(=O)N(C)c2ccccc2)c(=O)c2cc3sccc3n12", "values": [{"measurement": "Activity", "setting": "[1]", "value": 50, "unit": "%"}, {"measurement": "Activity", "setting": "[2]", "value": -9, "unit": "%"}, {"measurement": "viability at 24 h, 5 µM", "setting": "[3]", "value": 93, "unit": "%"}]}
{"smiles": "CCN(Cc1ccccc1)C(=O)Cn1nc(C)n2c(cc3sc(C)cc32)c1=O", "values": [{"measurement": "Activity", "setting": "[1]", "value": 45, "unit": "%"}, {"measurement": "Activity", "setting": "[2]", "value": 9, "unit": "%"}, {"measurement": "viability at 24 h, 5 µM", "setting": "[3]", "value": 90, "unit": "%"}]}
{"smiles": "C=CCN1C(=O)CN=C(c2ccccc2C)c2cc(CC)sc21", "values": [{"measurement": "Activity", "setting": "[1]", "value": 0, "unit": "%"}]}
{"smiles": "COc1ccccc1C1NC(=S)NC(C)=C1C(=O)OCc1ccccc1", "note": "(centres undefined)", "values": [{"measurement": "Activity", "setting": "[1]", "value": 56, "unit": "%"}, {"measurement": "Activity", "setting": "[2]", "value": 0, "unit": "%"}, {"measurement": "viability at 24 h, 5 µM", "setting": "[3]", "value": 88, "unit": "%"}]}
{"smiles": "CCc1nnc(SCC(=O)NCc2ccccc2)c2cc3sc(C)cc3n12", "values": [{"measurement": "Activity", "setting": "[1]", "value": 55, "unit": "%"}, {"measurement": "Activity", "setting": "[2]", "value": -3, "unit": "%"}, {"measurement": "viability at 24 h, 5 µM", "setting": "[3]", "value": 29, "unit": "%"}]}
{"smiles": "Cc1noc(C)c1S(=O)(=O)NC(c1ccccc1)c1ccccc1", "values": [{"measurement": "Activity", "setting": "[1]", "value": 0, "unit": "%"}]}
{"smiles": "Cc1nnc(SCC(=O)NCc2ccccc2)c2cc3sccc3n12", "values": [{"measurement": "Activity", "setting": "[1]", "value": 48, "unit": "%"}, {"measurement": "Activity", "setting": "[2]", "value": 6, "unit": "%"}, {"measurement": "viability at 24 h, 5 µM", "setting": "[3]", "value": 73, "unit": "%"}]}
{"smiles": "CCc1nnc(SCC(=O)N(CC)Cc2ccccc2)c2cc3sccc3n12", "values": [{"measurement": "Activity", "setting": "[1]", "value": 56, "unit": "%"}, {"measurement": "Activity", "setting": "[2]", "value": 1, "unit": "%"}, {"measurement": "viability at 24 h, 5 µM", "setting": "[3]", "value": 99, "unit": "%"}]}
{"smiles": "Cc1ccc(S(=O)(=O)NCc2cccnc2)c(C)c1", "values": [{"measurement": "Activity", "setting": "[1]", "value": 0, "unit": "%"}]}
{"smiles": "COC(=O)CN(c1ccc(C(C)C)cc1)S(=O)(=O)c1ccc(C)cc1", "values": [{"measurement": "Activity", "setting": "[1]", "value": 67, "unit": "%"}, {"measurement": "Activity", "setting": "[2]", "value": -1, "unit": "%"}, {"measurement": "viability at 24 h, 5 µM", "setting": "[3]", "value": 92, "unit": "%"}]}
{"smiles": "CCc1nn(CC(=O)Nc2ccc(OC)c(OC)c2)c(=O)c2cc3sccc3n12", "values": [{"measurement": "Activity", "setting": "[1]", "value": 56, "unit": "%"}, {"measurement": "Activity", "setting": "[2]", "value": -17, "unit": "%"}, {"measurement": "viability at 24 h, 5 µM", "setting": "[3]", "value": 40, "unit": "%"}]}
{"smiles": "C=CCN1C(=O)CN=C(c2cccs2)c2c1sc1c2CCC1", "values": [{"measurement": "Activity", "setting": "[1]", "value": 38, "unit": "%"}]}
{"smiles": "O=C(Cc1coc2ccc3ccccc3c12)NCc1ccco1", "values": [{"measurement": "Activity", "setting": "[1]", "value": 85, "unit": "%"}, {"measurement": "Activity", "setting": "[2]", "value": -3, "unit": "%"}, {"measurement": "viability at 24 h, 5 µM", "setting": "[3]", "value": 96, "unit": "%"}]}
{"smiles": "Cn1c(=O)oc2cc(NS(=O)(=O)Cc3ccco3)ccc21", "values": [{"measurement": "Activity", "setting": "[1]", "value": 41, "unit": "%"}, {"measurement": "Activity", "setting": "[2]", "value": 14, "unit": "%"}, {"measurement": "viability at 24 h, 5 µM", "setting": "[3]", "value": 103, "unit": "%"}]}
{"smiles": "C=CCN1C(=O)CN=C(c2ccccc2)c2c1sc(C)c2C", "values": [{"measurement": "Activity", "setting": "[1]", "value": 75, "unit": "%"}, {"measurement": "Activity", "setting": "[2]", "value": -2, "unit": "%"}, {"measurement": "viability at 24 h, 5 µM", "setting": "[3]", "value": 93, "unit": "%"}]}
{"smiles": "CCc1nnc(SCC(=O)Nc2ccc(OC)c(OC)c2)c2cc3sc(Cl)cc3n12", "values": [{"measurement": "Activity", "setting": "[1]", "value": 69, "unit": "%"}, {"measurement": "Activity", "setting": "[2]", "value": 7, "unit": "%"}, {"measurement": "viability at 24 h, 5 µM", "setting": "[3]", "value": 94, "unit": "%"}]}
{"smiles": "Cc1cc2c(cc3c(=O)n(CC(=O)N(C)C)nc(C)n32)s1", "values": [{"measurement": "Activity", "setting": "[1]", "value": 17, "unit": "%"}, {"measurement": "Activity", "setting": "[2]", "value": 0, "unit": "%"}, {"measurement": "viability at 24 h, 5 µM", "setting": "[3]", "value": 96, "unit": "%"}]}
{"smiles": "CN1C(=O)CN=C(c2ccc(Cl)cc2)c2cc(Cl)ccc21", "note": "[RO-54864]", "values": [{"measurement": "Activity", "setting": "[1]", "value": 12, "unit": "%"}, {"measurement": "Activity", "setting": "[2]", "value": 9, "unit": "%"}, {"measurement": "viability at 24 h, 5 µM", "setting": "[3]", "value": 100, "unit": "%"}]}
{"smiles": "CCN(Cc1ccccc1)C(=O)CSc1nnc(C)n2c1cc1sccc12", "values": [{"measurement": "Activity", "setting": "[1]", "value": 63, "unit": "%"}, {"measurement": "Activity", "setting": "[2]", "value": 8, "unit": "%"}, {"measurement": "viability at 24 h, 5 µM", "setting": "[3]", "value": 99, "unit": "%"}]}
{"smiles": "CCc1nnc(SCC(=O)NCc2ccccc2)c2cc3sccc3n12", "values": [{"measurement": "Activity", "setting": "[1]", "value": 50, "unit": "%"}, {"measurement": "Activity", "setting": "[2]", "value": -15, "unit": "%"}, {"measurement": "viability at 24 h, 5 µM", "setting": "[3]", "value": 54, "unit": "%"}]}
{"smiles": "Cc1cc2c(cc3c(SCC(=O)NCc4ccccc4)nnc(C)n32)s1", "values": [{"measurement": "Activity", "setting": "[1]", "value": 35, "unit": "%"}, {"measurement": "Activity", "setting": "[2]", "value": -50, "unit": "%"}, {"measurement": "viability at 24 h, 5 µM", "setting": "[3]", "value": 61, "unit": "%"}]}
{"smiles": "Cc1ccc2c(c1)C(c1ccccc1)=NCC(=O)N2C", "values": [{"measurement": "Activity", "setting": "[1]", "value": 1, "unit": "%"}]}
{"smiles": "COC(=O)CN1C(=O)C2CCCCC2Sc2ncccc21", "note": "(centres undefined)", "values": [{"measurement": "Activity", "setting": "[1]", "value": 0, "unit": "%"}]}
{"smiles": "CCOC(=O)C(C)N1C(=O)CN=C(c2ccc(OC)cc2)c2c1sc1c2CCCC1", "note": "(centres undefined)", "values": [{"measurement": "Activity", "setting": "[1]", "value": 24, "unit": "%"}]}
{"smiles": "CCN(C(=O)CCl)c1ncc(-c2ccc(OC)cc2)s1", "values": [{"measurement": "Activity", "setting": "[1]", "value": 0, "unit": "%"}]}
{"smiles": "CNC(=O)CN(c1ccc(Br)cc1)S(=O)(=O)c1ccc(C)cc1", "values": [{"measurement": "Activity", "setting": "[1]", "value": 35, "unit": "%"}]}
{"smiles": "CCCC(=O)n1nc(-c2ccco2)nc1S(=O)(=O)Cc1ccccc1", "values": [{"measurement": "Activity", "setting": "[1]", "value": 0, "unit": "%"}]}
{"smiles": "O=C(COc1ccc(Cl)cc1)ON=C(c1ccccc1)c1ccccc1", "values": [{"measurement": "Activity", "setting": "[1]", "value": 0, "unit": "%"}]}
{"smiles": "Cn1c(SCC(=O)NCc2ccccc2)nnc1-c1cc2ccccc2o1", "values": [{"measurement": "Activity", "setting": "[1]", "value": 19, "unit": "%"}]}
{"smiles": "Cc1ccc(S(=O)(=O)Nc2ccc3c(c2)sc(=O)n3C)c(C)c1", "values": [{"measurement": "Activity", "setting": "[1]", "value": 4, "unit": "%"}]}
{"smiles": "C=CCN1C(=O)CN=C(c2ccc(C(C)(C)C)cc2)c2c1sc1c2CCCC1", "values": [{"measurement": "Activity", "setting": "[1]", "value": 14, "unit": "%"}]}
{"smiles": "CN1C(=O)CN=C(c2ccccc2)c2cc(Br)ccc21", "values": [{"measurement": "Activity", "setting": "[1]", "value": 0, "unit": "%"}]}
{"smiles": "COC(=O)C1CCc2ccccc2N1C(=O)c1ccc(OC)cc1", "note": "(centres undefined)", "values": [{"measurement": "Activity", "setting": "[1]", "value": 38, "unit": "%"}]}
{"smiles": "CCOC(=O)C1=C(C)N/C(=C/c2ccccc2OCc2ccccc2)C1=O", "values": [{"measurement": "Activity", "setting": "[1]", "value": 22, "unit": "%"}]}
{"smiles": "CCOC(=O)C(C)N1C(=O)CN=C(c2cccc(C)c2)c2c1sc1c2CCCC1", "note": "(centres undefined)", "values": [{"measurement": "Activity", "setting": "[1]", "value": 0, "unit": "%"}]}
